Legend:
Experiment in all cases: increase in dead-cell fraction, 72 h; higher = more death;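 also: breast cancer cell lines in 384-well plates, stained with Hoechst plus LIVE/DEAD far red dye and imaged, cells above an LDR intensity threshold counted dead, Hoechst-negative corpses included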
LEE011/Ribociclib = compound: CN(C)C(=O)c1cc2cnc(Nc3ccc(N4CCNCC4)cn3)nc2n1C1CCCC1 [LEE011/Ribociclib]
THZ1 = compound: CN(C)C/C=C/C(=O)Nc1ccc(C(=O)Nc2cccc(Nc3ncc(Cl)c(-c4c[nH]c5ccccc45)n3)c2)cc1 [THZ1]
Flavopiridol = compound: CN1CC[C@H](c2c(O)cc(O)c3c(=O)cc(-c4ccccc4Cl)oc23)[C@H](O)C1 [Flavopiridol]
THZ531 = compound: CN(C)C/C=C/C(=O)Nc1ccc(C(=O)N2CCC[C@@H](Nc3ncc(Cl)c(-c4c[nH]c5ccccc45)n3)C2)cc1 [THZ531]
[1] = compound: CCN1CCN(Cc2ccc(Nc3ncc(F)c(-c4cc(F)c5nc(C)n(C(C)C)c5c4)n3)nc2)CC1
[2] = compound: CC(=O)c1c(C)c2cnc(Nc3ccc(N4CCNCC4)cn3)nc2n(C2CCCC2)c1=O

HCC70
increase in dead-cell fraction (LEE011/Ribociclib; 0.001 µM): -0.0029 | increase in dead-cell fraction (LEE011/Ribociclib; 0.003162 µM): 0.0024 | increase in dead-cell fraction (LEE011/Ribociclib; 0.01 µM): -0.0096 | increase in dead-cell fraction (LEE011/Ribociclib; 0.03162 µM): -0.0087 | increase in dead-cell fraction (LEE011/Ribociclib; 0.1 µM): -0.0125 | increase in dead-cell fraction (LEE011/Ribociclib; 0.3162 µM): -0.0098 | increase in dead-cell fraction (LEE011/Ribociclib; 1 µM): -0.0021 | increase in dead-cell fraction (LEE011/Ribociclib; 3.162 µM): -0.0069 | increase in dead-cell fraction (LEE011/Ribociclib; 10 µM): -0.0152 | increase in dead-cell fraction (THZ1; 0.0001 µM): 0.0011 | increase in dead-cell fraction (THZ1; 0.0003162 µM): 0.0017 | increase in dead-cell fraction (THZ1; 0.001 µM): -0.0087 | increase in dead-cell fraction (THZ1; 0.003162 µM): 0.0017 | increase in dead-cell fraction (THZ1; 0.01 µM): 0.0017 | increase in dead-cell fraction (THZ1; 0.03162 µM): 0.227 | increase in dead-cell fraction (THZ1; 0.1 µM): 0.676 | increase in dead-cell fraction (THZ1; 0.3162 µM): 0.872 | increase in dead-cell fraction (THZ1; 1 µM): 0.868 | increase in dead-cell fraction (Flavopiridol; 0.0001 µM): -0.003 | increase in dead-cell fraction (Flavopiridol; 0.0003162 µM): -0.0033 | increase in dead-cell fraction (Flavopiridol; 0.001 µM): -0.0119 | increase in dead-cell fraction (Flavopiridol; 0.003162 µM): -0.0038 | increase in dead-cell fraction (Flavopiridol; 0.01 µM): 0.0008 | increase in dead-cell fraction (Flavopiridol; 0.03162 µM): 0.009 | increase in dead-cell fraction (Flavopiridol; 0.1 µM): 0.0351 | increase in dead-cell fraction (Flavopiridol; 0.3162 µM): 0.487 | increase in dead-cell fraction (Flavopiridol; 1 µM): 0.401 | increase in dead-cell fraction (THZ531; 0.0001 µM): -0.0083 | increase in dead-cell fraction (THZ531; 0.0003162 µM): 0.004 | increase in dead-cell fraction (THZ531; 0.001 µM): -0.0113 | increase in dead-cell fraction (THZ531; 0.003162 µM): -0.0062 | increase in dead-cell fraction (THZ531; 0.01 µM): -0.0005 | increase in dead-cell fraction (THZ531; 0.03162 µM): 0.0092 | increase in dead-cell fraction (THZ531; 0.1 µM): 0.227 | increase in dead-cell fraction (THZ531; 0.3162 µM): 0.623 | increase in dead-cell fraction (THZ531; 1 µM): 0.805 | increase in dead-cell fraction ([1]; 0.001 µM): 0.0027 | increase in dead-cell fraction ([1]; 0.003162 µM): -0.0178 | increase in dead-cell fraction ([1]; 0.01 µM): -0.0021 | increase in dead-cell fraction ([1]; 0.03162 µM): -0.0067 | increase in dead-cell fraction ([1]; 0.1 µM): -0.0175 | increase in dead-cell fraction ([1]; 0.3162 µM): -0.0179 | increase in dead-cell fraction ([1]; 1 µM): -0.0058 | increase in dead-cell fraction ([1]; 3.162 µM): 0.169 | increase in dead-cell fraction ([1]; 10 µM): 0.639 | increase in dead-cell fraction ([2]; 0.0003162 µM): -0.0042 | increase in dead-cell fraction ([2]; 0.001 µM): 0.0102 | increase in dead-cell fraction ([2]; 0.003162 µM): -0.0045 | increase in dead-cell fraction ([2]; 0.01 µM): 0.0054 | increase in dead-cell fraction ([2]; 0.03162 µM): -0.0062 | increase in dead-cell fraction ([2]; 0.1 µM): 0.012 | increase in dead-cell fraction ([2]; 0.3162 µM): -0.0151 | increase in dead-cell fraction ([2]; 1 µM): -0.0002 | increase in dead-cell fraction ([2]; 3.162 µM): -0.0047
